Our source for the EC50 values is patent US11020395B2, “Cycloalkyl substituted triazole compounds as agonists of the APJ receptor” (AMGEN INC., priority 2016, dated 2021).

SMILES strings stand for the structures.

human APJ receptor, sequence (P35414 whole entry): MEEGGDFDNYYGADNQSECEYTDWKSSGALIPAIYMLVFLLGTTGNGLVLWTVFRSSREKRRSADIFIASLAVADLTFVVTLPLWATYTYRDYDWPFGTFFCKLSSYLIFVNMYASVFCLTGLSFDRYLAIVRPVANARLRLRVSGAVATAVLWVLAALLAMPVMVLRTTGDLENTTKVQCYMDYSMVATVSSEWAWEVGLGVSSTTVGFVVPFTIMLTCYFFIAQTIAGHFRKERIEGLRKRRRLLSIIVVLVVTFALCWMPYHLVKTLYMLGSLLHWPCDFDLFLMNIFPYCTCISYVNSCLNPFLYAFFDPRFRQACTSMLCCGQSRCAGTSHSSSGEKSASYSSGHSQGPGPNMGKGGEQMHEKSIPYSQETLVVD

The first experiment addresses human APJ receptor (Homo sapiens (Human), UniProt P35414). As to the kind of experiment: [35S]GTPγS binding assay on membranes from CHO cells stably expressing human APJ receptor. It is filed as biochemical. Conditions: Activity hAPJ SPA EC50 IP, [35S]GTPγS SPA. Summed up:
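Membranes from CHO cells stably expressing FLAG-tagged human APJ were incubated with [35S]GTPγS in buffer with optimized GDP, MgCl2 and NaCl, 90 min at RT. EC50 values derived by non-linear regression, averaged over several independent experiments.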
Background: Binding of GTPγS marks nucleotide exchange on a G protein.
Consider `COc1cccc(OC)c1-n1c(NS(=O)(=O)[C@@H](C)[C@H](OC)c2ncc(C)cn2)nnc1C1CC1` [Example 16.0, (1R,2S)—N-(5-Cyclopropyl-4-(2,6-dimethoxyphenyl)-4H-1,2,4-triazol-3-yl)-1-methoxy-1-(5-methyl-2-pyrimidinyl)-2-propanesulfonamide], for which the EC50 (commonly the concentration that produces a half-maximal response) was 0.022 µM.

Staying with this experiment, now noted: [35S]GTPγS SPA, read-out: Activity hAPJ SPA EC50 IP.
As for `COc1cccc(OC)c1-n1c(NS(=O)(=O)[C@@H](C)[C@@H](OC(C)C)c2ncc(C)cn2)nnc1[C@@H]1CCC(=O)C1` (single isomer, unassigned) [Example 230.0, (1S,2S)-N-(4-(2,6-dimethoxyphenyl)-5-((R)-3-oxocyclopentyl)-4H-1,2,4-triazol-3-yl)-1-isopropoxy-1-(5-methylpyrimidin-2-yl)propane-2-sulfonamide or (1S,2S)-N-(4-(2,6-dimethoxyphenyl)-5-((S)-3-oxocyclopentyl)-4H-1,2,4-triazol-3-yl)-1-isopropoxy-1-(5-methylpyrimidin-2-yl)propane-2-sulfonamide], the EC50 amounted to 0.19 µM. Still for that read-out and setting: under `COc1cccc(OC)c1-n1c(NS(=O)(=O)[C@@H](C)[C@@H](OC(C)C)c2ncc(C)cn2)nnc1[C@H]1C[C@@](C)(O)C1` (single isomer, unassigned) [Example 231.0, (1S,2S)-N-(4-(2,6-dimethoxyphenyl)-5-(trans-3-hydroxy-3-methylcyclobutyl)-4H-1,2,4-triazol-3-yl)-1-(5-methyl-2-pyrimidinyl)-1-(2-propanyloxy)-2-propanesulfonamide or (1S,2S)-N-(4-(2,6-dimethoxyphenyl)-5-(cis-3-hydroxy-3-methylcyclobutyl)-4H-1,2,4-triazol-3-yl)-1-(5-methyl-2-pyrimidinyl)-1-(2-propanyloxy)-2-propanesulfonamide] stands 0.22 µM. Same read-out and setting: under `COc1cccc(OC)c1-n1c(NS(=O)(=O)[C@@H](C)[C@@H](OC(C)C)c2ncc(C)cn2)nnc1[C@@H]1CCC[C@@H]1OC` (single isomer, unassigned) [Example 233.0] stands 0.094 µM; under `COc1cccc(OC)c1-n1c(NS(=O)(=O)[C@@H](C)[C@@H](OC(C)C)c2ncc(C)cn2)nnc1[C@@H]1CCC[C@@H]1OC` (single isomer, unassigned) [Example 234.0], 0.012 µM; under `COc1cccc(OC)c1-n1c(NS(=O)(=O)[C@@H](C)[C@@H](OC(C)C)c2ncc(C)cn2)nnc1[C@@H]1CCC[C@@H]1OC` (single isomer, unassigned) [Example 235.0], 0.15 µM. The same measure, in the same setting: under `COc1ncnc(OC)c1-n1c(NS(=O)(=O)[C@@H](C)[C@H](OC)c2ncc(Cl)cn2)nnc1[C@H]1C[C@](C)(F)C1` (single isomer, unassigned) [Example 237.0, (1R,2S)-1-(5-chloropyrimidin-2-yl)-N-(4-(4,6-dimethoxypyrimidin-5-yl)-5-((1s,3S)-3-fluoro-3-methylcyclobutyl)-4H-1,2,4-triazol-3-yl)-1-methoxypropane-2-sulfonamide or (1R,2S)-1-(5-chloropyrimidin-2-yl)-N-(4-(4,6-dimethoxypyrimidin-5-yl)-5-((1r,3S)-3-fluoro-3-methylcyclobutyl)-4H-1,2,4-triazol-3-yl)-1-methoxypropane-2-sulfonamide] stands 0.03 µM; under `COc1ncnc(OC)c1-n1c(NS(=O)(=O)[C@@H](C)[C@H](C)c2ncc(Cl)cn2)nnc1[C@@H]1CC[C@@H]1C(F)F` (stereo in doubt) [Example 166.0], 0.02 µM; under `COc1ncnc(OC)c1-n1c(NS(=O)(=O)[C@@H](C)[C@H](C)c2ncc(C)cn2)nnc1C1CC1` [Example 3.0, (2S,3R)-N-(5-cyclopropyl-4-(4,6-dimethoxy-5-pyrimidinyl)-4H-1,2,4-triazol-3-yl)-3-(5-methyl-2-pyrimidinyl)-2-butanesulfonamide], 0.056 µM. For `COc1ncnc(OC)c1-n1c(NS(=O)(=O)[C@@H](C)[C@H](C)c2ncc(C)cn2)nnc1C1CCC1` [Example 4.0, (2S,3R)-N-(5-cyclobutyl-4-(4,6-dimethoxy-5-pyrimidinyl)-4H-1,2,4-triazol-3-yl)-3-(5-methyl-2-pyrimidinyl)-2-butanesulfonamide], the EC50 stood at 0.021 µM. On to `COc1ncnc(OC)c1-n1c(NS(=O)(=O)[C@@H](C)[C@H](C)c2ncc(C)cn2)nnc1C1CCCCC1` [Example 5.0, (2S,3R)-N-(5-cyclohexyl-4-(4,6-dimethoxy-5-pyrimidinyl)-4H-1,2,4-triazol-3-yl)-3-(5-methyl-2-pyrimidinyl)-2-butanesulfonamide], for which the half-maximal effective concentration (EC50) stood at 0.0094 µM. As to `COc1ncnc(OC)c1-n1c(NS(=O)(=O)[C@@H](C)[C@H](OC)c2ncc(Cl)cn2)nnc1C1CCCCC1` [Example 6.0, (1R,2S)-1-(5-chloro-2-pyrimidinyl)-N-(5-cyclohexyl-4-(4,6-dimethoxy-5-pyrimidinyl)-4H-1,2,4-triazol-3-yl)-1-methoxy-2-propanesulfonamide], the half-maximal effective concentration (EC50) amounted to 0.0075 µM. The same measure, in the same setting: under `COc1ncnc(OC)c1-n1c(NS(=O)(=O)[C@@H](C)[C@H](OC)c2ncc(Cl)cn2)nnc1C1CCC1` [Example 7.0, (1R,2S)-1-(5-chloro-2-pyrimidinyl)-N-(5-cyclobutyl-4-(4,6-dimethoxy-5-pyrimidinyl)-4H-1,2,4-triazol-3-yl)-1-methoxy-2-propanesulfonamide] stands 0.066 µM. The same measure, in the same setting: the figure for `COc1cccc(OC)c1-n1c(NS(=O)(=O)[C@@H](C)[C@H](C)c2ncc(C)cn2)nnc1C1CCCC1` [Example 17.0, (2S,3R)-N-(5-cyclopentyl-4-(2,6-dimethoxyphenyl)-4H-1,2,4-triazol-3-yl)-3-(5-methylpyrimidin-2-yl)butane-2-sulfonamide] is 0.0011 µM.

As for `COc1ncnc(OC)c1-n1c(NS(=O)(=O)[C@@H](C)[C@H](C)c2ncc(C)cn2)nnc1C1CCCC1` [Example 18.0, (2S,3R)-N-(5-cyclopentyl-4-(4,6-dimethoxypyrimidin-5-yl)-4H-1,2,4-triazol-3-yl)-3-(5-methylpyrimidin-2-yl)butane-2-sulfonamide], the EC50 is 0.0021 µM. Still for that read-out and setting: the figure for `COc1ncnc(OC)c1-n1c(NS(=O)(=O)[C@@H](C)[C@H](OC)c2ncc(Cl)cn2)nnc1C1CCCC1` [Example 19.0, (1R,2S)-1-(5-chloropyrimidin-2-yl)-N-(5-cyclopentyl-4-(4,6-dimethoxypyrimidin-5-yl)-4H-1,2,4-triazol-3-yl)-1-methoxypropane-2-sulfonamide] is 0.0011 µM; for `COc1ncnc(OC)c1-n1c(NS(=O)(=O)[C@@H](C)[C@H](OC)c2ncc(Cl)cn2)nnc1C1CC1` [Example 24.0, (1R,2S)-1-(5-chloropyrimidin-2-yl)-N-(5-cyclopropyl-4-(4,6-dimethoxypyrimidin-5-yl)-4H-1,2,4-triazol-3-yl)-1-methoxypropane-2-sulfonamide] it is 0.011 µM; for `COc1ncnc(OC)c1-n1c(NS(=O)(=O)[C@@H](C)[C@H](OC)c2cnc(C)cn2)nnc1C1CCC1` [Example 82.0, (1R,2S)-N-(5-cyclobutyl-4-(4,6-dimethoxy-5-pyrimidinyl)-4H-1,2,4-triazol-3-yl)-1-methoxy-1-(5-methyl-2-pyrazinyl)-2-propanesulfonamide] it is 0.05 µM. Turning to `COc1ncnc(OC)c1-n1c(NS(=O)(=O)[C@@H](C)[C@@H](OC(C)C)c2ncc(C)cn2)nnc1C1CCC1` [Example 83.0, (1S,2S)-N-(5-cyclobutyl-4-(4,6-dimethoxy-5-pyrimidinyl)-4H-1,2,4-triazol-3-yl)-1-(5-methyl-2-pyrimidinyl)-1-(2-propanyloxy)-2-propanesulfonamide], the EC50 amounted to 0.006 µM. Take `COc1ncnc(OC)c1-n1c(NS(=O)(=O)[C@@H](C)[C@H](C)c2ncc(F)cn2)nnc1C1CCC1` [Example 84.0, (2S,3R)-N-(5-cyclobutyl-4-(4,6-dimethoxy-5-pyrimidinyl)-4H-1,2,4-triazol-3-yl)-3-(5-fluoro-2-pyrimidinyl)-2-butanesulfonamide]: the EC50 came out at 0.0108 µM. Consider `COc1ncnc(OC)c1-n1c(NS(=O)(=O)[C@@H](C)[C@H](C)c2ncc(Cl)cn2)nnc1C1CCC1` [Example 85.0, (2S,3R)-3-(5-chloro-2-pyrimidinyl)-N-(5-cyclobutyl-4-(4,6-dimethoxy-5-pyrimidinyl)-4H-1,2,4-triazol-3-yl)-2-butanesulfonamide], for which the EC50 was found to be 0.0017 µM.

Consider `COc1ncnc(OC)c1-n1c(NS(=O)(=O)[C@@H](C)[C@@H](OC(C)C)c2cnc(C)cn2)nnc1C1CCC1` [Example 86.0, (1S,2S)-N-(5-cyclobutyl-4-(4,6-dimethoxy-5-pyrimidinyl)-4H-1,2,4-triazol-3-yl)-1-(5-methyl-2-pyrazinyl)-1-(2-propanyloxy)-2-propanesulfonamide], for which the EC50 is 0.036 µM. Same read-out and setting: the figure for `COc1ncnc(OC)c1-n1c(NS(=O)(=O)[C@@H](C)[C@H](C)c2ccc(Cl)cn2)nnc1C1CCC1` [Example 87.0, (2S,3R)-3-(5-chloro-2-pyridinyl)-N-(5-cyclobutyl-4-(4,6-dimethoxy-5-pyrimidinyl)-4H-1,2,4-triazol-3-yl)-2-butanesulfonamide] is 0.002 µM. Still for that read-out and setting: under `COc1ncnc(OC)c1-n1c(NS(=O)(=O)[C@@H](C)[C@H](C)c2cnc(C)cn2)nnc1C1CCC1` [Example 88.0, (2S,3R)-N-(5-cyclobutyl-4-(4,6-dimethoxy-5-pyrimidinyl)-4H-1,2,4-triazol-3-yl)-3-(5-methyl-2-pyrazinyl)-2-butanesulfonamide] stands 0.042 µM. On the same count and under the same terms, the figure for `COc1ncnc(OC)c1-n1c(NS(=O)(=O)[C@@H](C)[C@@H](OC(C)C)c2ncc(Cl)cn2)nnc1C1CCC1` [Example 89.0, (1S,2S)-1-(5-chloro-2-pyrimidinyl)-N-(5-cyclobutyl-4-(4,6-dimethoxy-5-pyrimidinyl)-4H-1,2,4-triazol-3-yl)-1-(2-propanyloxy)-2-propanesulfonamide] is 0.00074 µM; for `COc1ncnc(OC)c1-n1c(NS(=O)(=O)[C@@H](C)[C@H](OC)c2ncc(C)cn2)nnc1C1CCC1` [Example 90.0, (1R,2S)-N-(5-cyclobutyl-4-(4,6-dimethoxypyrimidin-5-yl)-4H-1,2,4-triazol-3-yl)-1-methoxy-1-(5-methylpyrimidin-2-yl)propane-2-sulfonamide] it is 0.0092 µM.
